{
  "source": "patent US20250108036A1",
  "about": "“COMPOSITIONS FOR REMOVING SENESCENT CELLS AND USES THEREOF” (LIFECEUTIX CO., LTD., priority 2021, published 2025)",
  "key": {"HMGN1 [1]": {"test_system": "HMGN1", "experiment": "HMGN1 ELISA in culture medium of foreskin cells (Examples 10, 11; Tables 62, 63, 64)", "format": "cell-based, human", "settings": "for activity at 30 µM: Homo sapiens, 30 μM test compound, doxorubicin-treated foreskin cells, DMSO = 100, read-out: HMGN1"}, "HMGB1": {"test_system": "HMGB1", "experiment": "HMGB1 ELISA in culture medium of senescent foreskin cells (Example 10, Table 62)", "format": "cell-based, human", "protocol": "After 6 hours, the amounts of HMGB1 and HMGN1 secreted into the cell culture medium were measured using an enzyme-linked immunosorbent assay (ELISA Kit, purchased from AssayGenie)."}, "[2]": {"test_system": "foreskin cells in which aging was induced by doxorubicin", "experiment": "cell viability of senescent foreskin cells with caspase inhibitor QVD-Oph (Example 10, Table 61)", "format": "cell-based, human", "settings": "ABT-263 1 μM; for Survial (%): doxorubicin-senescent foreskin cells, 3 days"}, "HMGN1 [3]": {"test_system": "HMGN1", "experiment": "HMGN1 ELISA in culture medium of A549 cancer cells (Example 12, Table 66)", "format": "cell-based, human", "settings": "Homo sapiens, A549, doxorubicin-induced senescent A549 cells, test compound 30 μM, ELISA, DMSO = 100; read-out: HMGN1 (amount of HMGN1 secreted in the cell culture)"}, "[4]": {"test_system": "foreskin cells in which senescence was induced by doxorubicin", "experiment": "CellTiter-Glo cell viability of doxorubicin-induced senescent foreskin cells (Examples 1-2, 10, 11, 13; Tables 4, 63, 65)", "format": "cell-based, human", "settings": "for cell death, senescent cells: 30 μM, 3 days; for viability at 1.1 µM: 1.1 μM test compound; for viability at 10 µM: 10 μM test compound; for viability at […]: […] test compound", "experimental": "(§1) After 3 days, cell viability was measured using CellTiter-Glo Luminescent Cell Viability Assay (Promega) or light microscopy."}, "[5]": {"test_system": "normally proliferating foreskin cells", "experiment": "survival of normally proliferating foreskin cells treated with medium supernatant (secreted fluid) of compound-killed cells (Example 13, Table 68)", "format": "cell-based, human", "settings": "after 3 days", "protocol": "After treating cells with the test compound at a high concentration that induces the death of most cells in both non-senescence-induced and senescence-induced cells, the cells were washed three times with PBS to remove the test compound, and replaced with fresh medium and cultured for an additional 3 hours at the time when the compound has entered into the cell but has not yet induced cell death (approximately 1 to 3 hours after compound treatment). During this additional culture, by checking with an optical microscope, etc., the medium supernatants containing secreted fluid from normally proliferating and senescent cells in which cell death was induced were obtained. The obtained medium supernatant was replaced with the medium of normally proliferating and senescent cells, respectively, and cell survival rate was measured after 3 days."}, "A549": {"test_system": "A549", "experiment": "CellTiter-Glo cell viability of senescent A549 cancer cells (Example 12, Table 67)", "format": "cell-based, human", "settings": "Homo sapiens, A549, doxorubicin-induced senescent A549 cancer cells, CellTiter-Glo, read-out: Survival (%); for viability at 1.1 µM: 1.1 μM test compound"}, "senescent foreskin cells": {"test_system": "senescent foreskin cells", "experiment": "survival of senescent foreskin cells treated with medium supernatant (secreted fluid) of compound-killed cells (Example 13, Tables 68, 69)", "format": "cell-based, human", "settings": "supernatant-treated cells: senescent cells, after 3 days", "experimental": "as §1"}, "[6]": {"test_system": "foreskin cells in which senescence was not induced", "experiment": "CellTiter-Glo growth of foreskin cells in which senescence was not induced (Tables 5, 12)", "settings": "30 μM, 3 days", "experimental": "as §1"}, "[7]": {"settings": "read-out: MST Kd; cited from earlier work"}, "[8]": {"settings": "1 μM, culture medium after 6 hours, senescent foreskin cells"}, "[9]": {"settings": "ABT-263 1 μM or LX-112 10 μM, 6 hours"}, "[10]": {"settings": "Homo sapiens, 72 h, doxorubicin-induced senescent foreskin cells, CellTiter-Glo, 0 μM = 100, read-out: Survival (%)"}, "[11]": {"settings": "supernatant from compound-treated medium without cells (No Cells)"}, "[12]": {"settings": "supernatant from death-induced proliferating foreskin cells (compound 30 μM)"}, "[13]": {"settings": "supernatant from death-induced senescent foreskin cells (compound 30 μM)"}},
  "data": [
    {"compound": "CC1(C)CCC(c2ccc(Cl)cc2)=C(CN2CCN(c3ccc(C(=O)NS(=O)(=O)c4ccc(N[C@H](CCN5CCOCC5)CSc5ccccc5)c(S(=O)(=O)C(F)(F)F)c4)cc3)CC2)C1", "note": "[ABT-263, reference compound]", "values": [
      {"measurement": "HMGN1 (pg/ml)", "setting": "HMGN1 [1]; [8]", "result": "105.3 (±13.5) pg/ml"},
      {"measurement": "HMGN1 secreted in the culture medium from dying senescent cells", "setting": "HMGN1 [1]; [9]", "result": "no significant change"},
      {"measurement": "HMGB1 (pg/ml)", "setting": "HMGB1; [8]", "result": "462.7 (±21.6) pg/ml"},
      {"measurement": "HMGB1 secreted in the culture medium from dying senescent cells", "setting": "HMGB1; [9]", "result": "little change"},
      {"measurement": "Survial (%)", "setting": "[2]; QVD-Oph 20 μM applied 4 hours before", "result": "98.4 (±2.6) %"},
      {"measurement": "Survial (%)", "setting": "[2]; without QVD-Oph", "result": "23.8 (±5.5) %"},
      {"measurement": "inhibition of the death of senescent cells by the caspase inhibitor", "setting": "[2]; QVD-Oph 20 μM, LX-112 10 μM", "result": "completely inhibited"}
    ]},
    {"compound": "Cc1onc(C(=O)N2CCN(C(c3ccc(Cl)cc3)c3ccc(Cl)cc3)CC2)c1N(O)O", "note": "[LX-401]", "values": [
      {"measurement": "activity at 30 µM", "setting": "HMGN1 [1]", "result": 263, "unit": "%"},
      {"measurement": "activity at 30 µM", "setting": "HMGN1 [3]", "result": 277, "unit": "%"},
      {"measurement": "cell death, senescent cells", "setting": "[4]", "result": "induced the death of most cells"},
      {"measurement": "viability at 1.1 µM", "setting": "[4]; [10]", "result": 20.4, "unit": "%"},
      {"measurement": "viability at 10 µM", "setting": "[4]; [10]", "result": 10.6, "unit": "%"},
      {"measurement": "viability at 30 µM", "setting": "[4]; Homo sapiens, 72 h, 30 μM test compound, doxorubicin-induced senescent foreskin cells, CellTiter-Glo, 0 μM = 100, read-out: Survival (%)", "result": 7.8, "unit": "%"},
      {"measurement": "viability at […]", "setting": "[4]; [10]", "result": 12.4, "unit": "%"},
      {"measurement": "Survival (%)", "setting": "[5]; [11]", "result": "97.9 (±7.2) %"},
      {"measurement": "Survival (%)", "setting": "[5]; [12]", "result": "88.1 (±4.2) %"},
      {"measurement": "Survival (%)", "setting": "[5]; [13]", "result": "95.1 (±5.7) %"},
      {"measurement": "viability at 1.1 µM", "setting": "A549", "result": 89.7, "unit": "%"},
      {"measurement": "viability at 10 µM", "setting": "A549; 10 μM test compound", "result": 42.1, "unit": "%"},
      {"measurement": "viability at 30 µM", "setting": "A549; 30 μM test compound", "result": 16.8, "unit": "%"},
      {"measurement": "Survival (%)", "setting": "senescent foreskin cells; [11]", "result": "101.1 (±5.5) %"},
      {"measurement": "Survival (%)", "setting": "senescent foreskin cells; [12]", "result": "48.2 (±4.2) %"},
      {"measurement": "Survival (%)", "setting": "senescent foreskin cells; [13]", "result": "42.2 (±4)^ %"},
      {"measurement": "cell death, normally proliferating cells", "setting": "[6]", "result": "induced the death of most cells"}
    ]},
    {"compound": "COc1ccc(N(C(=O)CCl)C(C(=O)NCCc2ccccc2)c2cccs2)cc1Cl", "note": "(stereo not shown) [LX-402]", "values": [
      {"measurement": "activity at 30 µM", "setting": "HMGN1 [1]", "result": 298, "unit": "%"},
      {"measurement": "activity at 30 µM", "setting": "HMGN1 [3]", "result": 340, "unit": "%"},
      {"measurement": "cell death, senescent cells", "setting": "[4]", "result": "induced the death of most cells"},
      {"measurement": "viability at 1.1 µM", "setting": "[4]; [10]", "result": 67.2, "unit": "%"},
      {"measurement": "viability at 10 µM", "setting": "[4]; [10]", "result": 4.5, "unit": "%"},
      {"measurement": "viability at […]", "setting": "[4]; [10]", "result": 27, "unit": "%"},
      {"measurement": "Survival (%)", "setting": "[5]; [11]", "result": "97.1 (±5.9) %"},
      {"measurement": "Survival (%)", "setting": "[5]; [12]", "result": "78.1 (±3.8) %"},
      {"measurement": "Survival (%)", "setting": "[5]; [13]", "result": "101.1 (±2.2) %"},
      {"measurement": "viability at 1.1 µM", "setting": "A549", "result": 71.6, "unit": "%"},
      {"measurement": "Survival (%)", "setting": "senescent foreskin cells; [11]", "result": "98 (±3.6) %"},
      {"measurement": "Survival (%)", "setting": "senescent foreskin cells; [12]", "result": "31 (±1.2) %"},
      {"measurement": "Survival (%)", "setting": "senescent foreskin cells; [13]", "result": "48.3 (±2.1) %"},
      {"measurement": "cell death, normally proliferating cells", "setting": "[6]", "result": "induced the death of most cells"}
    ]},
    {"compound": "CC(C)(C)OC(=O)CCCN1C(=O)c2ccccc2C1=O", "note": "[LX-407]", "values": [
      {"measurement": "activity at 30 µM", "setting": "HMGN1 [1]", "result": 299, "unit": "%"},
      {"measurement": "activity at 30 µM", "setting": "HMGN1 [3]", "result": 339, "unit": "%"},
      {"measurement": "viability at 1.1 µM", "setting": "[4]; [10]", "result": 15.9, "unit": "%"},
      {"measurement": "Kd", "setting": "[7]", "result": 0.399, "unit": "µM"},
      {"measurement": "viability at 1.1 µM", "setting": "A549", "result": 29.4, "unit": "%"}
    ]},
    {"compound": "CC(C)(C)OC(=O)CCN1C(=O)c2ccccc2C1=O", "note": "[QW-011]", "values": [
      {"measurement": "Kd", "setting": "[7]", "result": 0.926, "unit": "µM"}
    ]},
    {"compound": "CC(C)(C)OC(=O)C(C)(C)N1C(=O)c2ccccc2C1=O", "note": "[QW-020]", "values": [
      {"measurement": "Kd", "setting": "[7]", "result": 2.14, "unit": "µM"}
    ]},
    {"compound": "CC(C(=O)OC(C)(C)C)N1C(=O)c2ccccc2C1=O", "note": "(stereo not shown) [QW-023]", "values": [
      {"measurement": "Kd", "setting": "[7]", "result": 1.78, "unit": "µM"}
    ]},
    {"compound": "CC(C)(C)OC(=O)CCCCCN1C(=O)c2ccccc2C1=O", "note": "[QW-029]", "values": [
      {"measurement": "Kd", "setting": "[7]", "result": 2.1, "unit": "µM"}
    ]},
    {"compound": "CC(C)(C)OC(=O)C(N1C(=O)c2ccccc2C1=O)C(C)(C)C", "note": "(stereo not shown) [QW-034]", "values": [
      {"measurement": "Kd", "setting": "[7]", "result": 0.979, "unit": "µM"}
    ]},
    {"compound": "CCC(C)C(C(=O)OC(C)(C)C)N1C(=O)c2ccccc2C1=O", "note": "(stereo not shown) [QW-050]", "values": [
      {"measurement": "Kd", "setting": "[7]", "result": 2.43, "unit": "µM"}
    ]}
  ]
}
